# Measured values taken from patent publication US20260217767A1, “NOVEL A4B7 THIOETHER PEPTIDE DIMER ANTAGONISTS” (Protagonist Therapeutics, Inc., priority 2014, published 2026).
# pIC50: −log10 of the molar value. *1 amine or outer side, *2 acyl side, *3 side chain or, on linkers, in order; H or OH if unused. Where a SMILES comes first, the peptide text is derived from it. Bridges are numbered along the chain shown (N, C = ends). Roman numbers before positions name the chains, in order. [ ]: non-standard residue; d: D form. Bip = N[C@@H](Cc1ccc(-c2ccccc2)cc1)C(=O)O; 1Nal = N[C@@H](Cc1cccc2ccccc12)C(=O)O; Diglycolyl = O=C(COCC(=O)[*:2])[*:1]; NMeR = CN[C@@H](CCCNC(=N)N)C(=O)O; X1 = O=C(c1ccccc1C[*:2])[*:1]; Pen = CC(C)(S)[C@H](N)C(=O)O
# Biological target: T1, rh integrin α4β7 (Homo sapiens, UniProt P13612+P26010)
# T1 construct: purchased R&D Systems 5397-A30
# T1 sequence (P13612 34-977 limits assumed): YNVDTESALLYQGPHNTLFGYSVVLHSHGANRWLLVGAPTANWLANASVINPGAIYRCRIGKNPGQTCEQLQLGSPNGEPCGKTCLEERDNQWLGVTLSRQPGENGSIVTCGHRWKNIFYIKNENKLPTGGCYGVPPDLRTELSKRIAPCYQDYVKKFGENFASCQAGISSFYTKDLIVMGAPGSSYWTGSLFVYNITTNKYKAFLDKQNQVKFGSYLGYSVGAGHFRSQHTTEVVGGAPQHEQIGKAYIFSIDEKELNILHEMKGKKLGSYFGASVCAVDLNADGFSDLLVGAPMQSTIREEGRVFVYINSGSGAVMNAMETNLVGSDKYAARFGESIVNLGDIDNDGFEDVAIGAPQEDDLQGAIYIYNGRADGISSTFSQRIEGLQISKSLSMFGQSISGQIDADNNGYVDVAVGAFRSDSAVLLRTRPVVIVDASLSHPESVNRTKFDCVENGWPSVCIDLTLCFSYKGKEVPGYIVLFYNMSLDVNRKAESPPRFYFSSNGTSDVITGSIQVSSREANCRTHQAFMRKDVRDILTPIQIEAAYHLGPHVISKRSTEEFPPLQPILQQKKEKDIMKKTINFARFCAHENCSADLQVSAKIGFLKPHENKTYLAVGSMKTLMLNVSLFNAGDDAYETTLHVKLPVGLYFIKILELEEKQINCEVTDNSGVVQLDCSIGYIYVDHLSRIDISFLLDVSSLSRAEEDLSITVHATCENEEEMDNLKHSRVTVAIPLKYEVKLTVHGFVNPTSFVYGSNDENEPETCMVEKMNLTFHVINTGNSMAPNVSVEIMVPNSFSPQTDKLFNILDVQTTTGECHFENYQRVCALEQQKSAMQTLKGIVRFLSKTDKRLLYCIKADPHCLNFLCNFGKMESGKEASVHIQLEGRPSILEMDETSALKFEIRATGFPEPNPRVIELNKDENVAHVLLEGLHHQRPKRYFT
# T1 sequence (P26010 20-723 limits assumed): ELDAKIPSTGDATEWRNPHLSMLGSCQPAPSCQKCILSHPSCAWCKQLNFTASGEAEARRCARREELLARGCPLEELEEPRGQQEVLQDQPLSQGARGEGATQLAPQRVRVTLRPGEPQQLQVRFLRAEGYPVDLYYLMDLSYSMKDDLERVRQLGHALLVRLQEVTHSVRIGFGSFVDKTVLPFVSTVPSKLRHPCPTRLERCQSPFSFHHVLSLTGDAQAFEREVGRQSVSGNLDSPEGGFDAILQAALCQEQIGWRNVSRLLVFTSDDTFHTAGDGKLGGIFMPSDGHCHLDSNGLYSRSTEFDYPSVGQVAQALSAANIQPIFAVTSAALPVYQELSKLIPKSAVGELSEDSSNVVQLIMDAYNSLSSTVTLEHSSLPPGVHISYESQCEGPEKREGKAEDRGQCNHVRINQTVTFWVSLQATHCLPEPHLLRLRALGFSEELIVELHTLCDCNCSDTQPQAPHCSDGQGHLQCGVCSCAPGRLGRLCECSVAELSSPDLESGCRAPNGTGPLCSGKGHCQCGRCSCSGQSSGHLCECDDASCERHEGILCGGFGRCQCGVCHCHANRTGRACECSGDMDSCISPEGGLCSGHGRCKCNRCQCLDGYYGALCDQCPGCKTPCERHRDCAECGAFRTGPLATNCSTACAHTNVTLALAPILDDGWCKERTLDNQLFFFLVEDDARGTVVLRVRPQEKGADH
# Assay: α4β7-MAdCAM Competition ELISA
# Format: binding
# Conditions: thioether monomer peptides, Table 6; read-out: ELISA A4B7
# Summary of the method: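 Recombinant human α4β7 captured on nickel-coated plates, then incubated 1 h at room temperature with serially diluted peptides (final top 10 μM) and 10 nM final MAdCAM-1 in Tris pH 7.6 buffer with 1 mM MnCl2 or MgCl2. Bound MAdCAM-1 detected with anti-human IgG1-HRP and TMB, absorbance at 450 nm.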
row,SMILES,pIC50
1,"CC(C)C[C@@H]1NC(=O)[C@H]([C@@H](C)O)NC(=O)[C@H](CC(=O)O)NC(=O)[C@H](CO)NC(=O)[C@H](CCCNC(=N)N)N(C)C(=O)c2ccccc2CSC(C)(C)[C@@H](C(=O)N[C@@H](Cc2c[nH]c3ccccc23)C(=O)N[C@H](CCC(=O)O)C(=O)N[C@@H](CN)C(N)=O)NC1=O [compound 94] (HELM PEPTIDE1{[meR].S.D.T.L.[Pen].W.[dE].[NC[C@H](N[*:1])C(=O)[*:2]].[am]}|CHEM1{[O=C(c1ccccc1C[*:2])[*:1]]}$PEPTIDE1,CHEM1,1:R1-1:R1|PEPTIDE1,CHEM1,6:R3-1:R2$$$V2.0)",> 7.60
2,"CC(C)C[C@@H]1NC(=O)[C@H]([C@@H](C)O)NC(=O)[C@H](CC(=O)O)NC(=O)[C@H](CO)NC(=O)[C@H](CCCNC(=N)N)N(C)C(=O)c2ccccc2CSC(C)(C)[C@@H](C(=O)N[C@@H](Cc2ccc3ccccc3c2)C(N)=O)NC1=O [compound 116] (HELM PEPTIDE1{[meR].S.D.T.L.[Pen].[O=C([C@H](Cc1ccc2ccccc2c1)N[*:1])[*:2]].[am]}|CHEM1{[O=C(c1ccccc1C[*:2])[*:1]]}$PEPTIDE1,CHEM1,1:R1-1:R1|PEPTIDE1,CHEM1,6:R3-1:R2$$$V2.0)",> 7.60
3,"CC(C)C[C@@H]1NC(=O)[C@H]([C@@H](C)O)NC(=O)[C@H](CC(=O)O)NC(=O)[C@H](CO)NC(=O)[C@H](CCCNC(=N)N)N(C)C(=O)c2ccccc2CSC(C)(C)[C@@H](C(=O)N[C@@H](Cc2c[nH]c3ccccc23)C(=O)N[C@H](CCC(=O)O)C(=O)N[C@@H](Cc2ccc(O)cc2)C(N)=O)NC1=O [compound 104] (HELM PEPTIDE1{[meR].S.D.T.L.[Pen].W.[dE].Y.[am]}|CHEM1{[O=C(c1ccccc1C[*:2])[*:1]]}$PEPTIDE1,CHEM1,1:R1-1:R1|PEPTIDE1,CHEM1,6:R3-1:R2$$$V2.0)",> 7.60
4,"CC(C)C[C@@H]1NC(=O)[C@H]([C@@H](C)O)NC(=O)[C@H](CC(=O)O)NC(=O)[C@H](CO)NC(=O)[C@H](CCCNC(=N)N)N(C)C(=O)c2ccccc2CSC(C)(C)[C@@H](C(=O)N[C@@H](Cc2c[nH]c3ccccc23)C(=O)N[C@@H](CCC(=O)O)C(=O)N[C@@H](CCN)C(N)=O)NC1=O [compound 93] (HELM PEPTIDE1{[meR].S.D.T.L.[Pen].W.E.[Dab].[am]}|CHEM1{[O=C(c1ccccc1C[*:2])[*:1]]}$PEPTIDE1,CHEM1,1:R1-1:R1|PEPTIDE1,CHEM1,6:R3-1:R2$$$V2.0)",> 7.60
5,"CC(C)C[C@@H]1NC(=O)[C@H]([C@@H](C)O)NC(=O)[C@H](CC(=O)O)NC(=O)[C@H](CO)NC(=O)[C@H](CCCNC(=N)N)N(C)C(=O)c2ccccc2CSC[C@@H](C(=O)N[C@@H](Cc2c[nH]c3ccccc23)C(=O)N[C@@H](CCC(=O)O)C(=O)N[C@H](CCCCN)C(N)=O)NC1=O [compound 55] (HELM PEPTIDE1{[meR].S.D.T.L.C.W.E.[dK].[am]}|CHEM1{[O=C(c1ccccc1C[*:2])[*:1]]}$PEPTIDE1,CHEM1,1:R1-1:R1|PEPTIDE1,CHEM1,6:R3-1:R2$$$V2.0)",> 7.60
6,"CC(C)C[C@@H]1NC(=O)[C@H]([C@@H](C)O)NC(=O)[C@H](CC(=O)O)NC(=O)[C@H](CO)NC(=O)[C@H](CCCNC(=N)N)N(C)C(=O)c2ccccc2CSC(C)(C)[C@@H](C(=O)N[C@@H](Cc2c[nH]c3ccccc23)C(=O)N[C@H](CCC(=O)O)C(=O)N[C@@H](CO)C(N)=O)NC1=O [compound 100] (HELM PEPTIDE1{[meR].S.D.T.L.[Pen].W.[dE].S.[am]}|CHEM1{[O=C(c1ccccc1C[*:2])[*:1]]}$PEPTIDE1,CHEM1,1:R1-1:R1|PEPTIDE1,CHEM1,6:R3-1:R2$$$V2.0)",> 7.60
7,"CC(C)C[C@@H]1NC(=O)[C@H]([C@@H](C)O)NC(=O)[C@H](CC(=O)O)NC(=O)[C@H](CO)NC(=O)[C@H](CCCNC(=N)N)N(C)C(=O)c2ccccc2CSC(C)(C)[C@@H](C(=O)N[C@@H](Cc2c[nH]c3ccccc23)C(=O)N[C@H](CCC(=O)O)C(=O)N[C@H](CCC(=O)O)C(N)=O)NC1=O [compound 108] (HELM PEPTIDE1{[meR].S.D.T.L.[Pen].W.[dE].[dE].[am]}|CHEM1{[O=C(c1ccccc1C[*:2])[*:1]]}$PEPTIDE1,CHEM1,1:R1-1:R1|PEPTIDE1,CHEM1,6:R3-1:R2$$$V2.0)",> 7.60
8,"CC(=O)NCCCC[C@@H](NC(=O)[C@@H](CCC(=O)O)NC(=O)[C@H](Cc1c[nH]c2ccccc12)NC(=O)[C@H]1NC(=O)[C@H](CC(C)C)NC(=O)[C@H]([C@@H](C)O)NC(=O)[C@H](CC(=O)O)NC(=O)[C@H](CO)NC(=O)[C@H](CCCNC(=N)N)N(C)C(=O)c2ccccc2CSC1(C)C)C(N)=O [compound 81] (HELM PEPTIDE1{[meR].S.D.T.L.[Pen].W.[dE].[dK].[am]}|PEPTIDE2{[ac]}|CHEM1{[O=C(c1ccccc1C[*:2])[*:1]]}$PEPTIDE1,PEPTIDE2,9:R3-1:R2|PEPTIDE1,CHEM1,1:R1-1:R1|PEPTIDE1,CHEM1,6:R3-1:R2$$$V2.0)",> 7.60

# Same assay, conditions: thioether peptide dimers, Table 7; read-out: ELISA A4B7
row,SMILES,pIC50
1,"CC(C)C[C@@H]1NC(=O)[C@H]([C@@H](C)O)NC(=O)[C@H](CC(=O)O)NC(=O)[C@H](CO)NC(=O)[C@H](CCCNC(=N)N)N(C)C(=O)C(C)SC[C@@H](C(=O)N[C@@H](Cc2c[nH]c3ccccc23)C(=O)N[C@H](CCCCN)C(N)=O)NC1=O (single isomer, unassigned) [compound 144]",> 7.60
2,CC(C)C[C@@H]1NC(=O)[C@H]([C@@H](C)O)NC(=O)[C@H](CC(=O)O)NC(=O)[C@H](CO)NC(=O)[C@H](CCCNC(=N)N)N(C)C(=O)CSC[C@@H](C(=O)N[C@@H](Cc2c[nH]c3ccccc23)C(=O)N[C@H](CCCCNC(=O)COCC(=O)NCCCC[C@@H](NC(=O)[C@H](Cc2c[nH]c3ccccc23)NC(=O)[C@@H]2CSCC(=O)N(C)[C@@H](CCCNC(=N)N)C(=O)N[C@@H](CO)C(=O)N[C@@H](CC(=O)O)C(=O)N[C@@H]([C@@H](C)O)C(=O)N[C@@H](CC(C)C)C(=O)N2)C(N)=O)C(N)=O)NC1=O [compound 143],> 7.60
3,"CC(C)C[C@@H]1NC(=O)[C@H]([C@@H](C)O)NC(=O)[C@H](CC(=O)O)NC(=O)[C@H](CO)NC(=O)[C@H](CCCNC(=N)N)N(C)C(=O)c2ccccc2CSC(C)(C)[C@@H](C(=O)N[C@@H](Cc2ccc(-c3ccccc3)cc2)C(=O)N[C@H](CCC(=O)O)C(=O)N[C@H](CCCCNC(=O)COCC(=O)NCCCC[C@@H](NC(=O)[C@@H](CCC(=O)O)NC(=O)[C@H](Cc2ccc(-c3ccccc3)cc2)NC(=O)[C@H]2NC(=O)[C@H](CC(C)C)NC(=O)[C@H]([C@@H](C)O)NC(=O)[C@H](CC(=O)O)NC(=O)[C@H](CO)NC(=O)[C@H](CCCNC(=N)N)N(C)C(=O)c3ccccc3CSC2(C)C)C(=O)O)C(=O)O)NC1=O [compound 208] (I: [NMeR]SDTL[Pen][Bip][dE][dK]-OH / II: [NMeR]SDTL[Pen][Bip][dE][dK]-OH; linker I:9-II:9 via Diglycolyl; linker I:N-I:6, II:N-II:6 via X1)",> 7.60
4,"CC(C)C[C@@H]1NC(=O)[C@H]([C@@H](C)O)NC(=O)[C@H](CC(=O)O)NC(=O)[C@H](CO)NC(=O)[C@H](CCCNC(=N)N)N(C)C(=O)c2ccccc2CSC(C)(C)[C@@H](C(=O)N[C@@H](Cc2cccc3ccccc23)C(=O)N[C@H](CCC(=O)O)C(=O)N[C@H](CCCCNC(=O)COCC(=O)NCCCC[C@@H](NC(=O)[C@@H](CCC(=O)O)NC(=O)[C@H](Cc2cccc3ccccc23)NC(=O)[C@H]2NC(=O)[C@H](CC(C)C)NC(=O)[C@H]([C@@H](C)O)NC(=O)[C@H](CC(=O)O)NC(=O)[C@H](CO)NC(=O)[C@H](CCCNC(=N)N)N(C)C(=O)c3ccccc3CSC2(C)C)C(N)=O)C(N)=O)NC1=O [compound 158] (I: [NMeR]SDTL[Pen][1Nal][dE][dK]-NH2 / II: [NMeR]SDTL[Pen][1Nal][dE][dK]-NH2; linker I:9-II:9 via Diglycolyl; linker I:N-I:6, II:N-II:6 via X1)",> 7.60
